# Reference: US12168012B2, “NLRP3 inflammasome inhibitors” (Novartis AG, priority 2018, dated 2024)
# Test system: NLRP3 inflammasome
# Assay: IL-1β secretion assay
# Type: cell-based
# Conditions: Homo sapiens, THP-1, 3 h, PMA-differentiated THP-1 cells, 15 μM nigericin, HTRF
# Method: 10 μL supernatant was removed, and IL-1p levels were monitored using an HTRF assay (CisBio, #62IL1PEC) according to manufacturers' instructions. Viability and pyroptosis was monitored with the addition of PrestoBlue cell viability reagent (Life Technologies, #A13261) directly to the cell culture plate.
# IC50 values were calculated from the plot of percentage of inhibition versus the inhibitor concentration by a logistics fit according to: y=A2+(A1−A2)/(1+(x/IC50)^p) where y is the %-inhibition at the inhibitor concentration, x. A1 is the lowest inhibition value, i.e. 0%, and A2 the maximum inhibition value, i.e. 100%. The exponent, p, is the Hill coefficient. The curve fitting was conducted with an internally developed software suite.
# NLRP3-dependent IL-1β secretion was stimulated in PMA-differentiated THP-1 cells by the addition of nigericin, and cytokines were measured in the […] after 3 hours. As discussed above, activation of the NLRP3 inflammasome requires both an NF-kB-dependent priming step and the addition of a NLRP3 activator.
row,Compound,IC50 [nM]
1,"CC(C)c1nn(CC(=O)Nc2ccc(F)nc2)c(=O)c2cc3sc(Cl)cc3n12 [Ex 14, 2-(2-Chloro-5-isopropyl-8-oxothieno[2′,3′:4,5]pyrrolo[1,2-d][1,2,4]triazin-7(8H)-yl)-N-(6-fluoropyridin-3-yl)acetamide]",90.6
2,"CC(C)c1nn(CC(=O)N[C@H]2C[C@](O)(C(F)(F)F)C2)c(=O)c2cc3sc(Cl)cc3n12 [Ex 74, 2-(2-Chloro-5-isopropyl-8-oxothieno[2′,3′:4,5]pyrrolo[1,2-d][1,2,4]triazin-7(8H)-yl)-N-((1s,3s)-3-hydroxy-3-(trifluoromethyl)cyclobutyl)acetamide]",4.4
3,"CC(C)(O)c1nn(CC(=O)N[C@@H]2CCCN(C3CC3)C2)c(=O)c2cc3sc(Cl)cc3n12 [Ex 126, (R)-2-(2-Chloro-5-(2-hydroxypropan-2-yl)-8-oxothieno[2′,3′:4,5]pyrrolo[1,2-d][1,2,4]triazin-7(8H)-yl)-N-(1-cyclopropylpiperidin-3-yl)acetamide]",0.6
4,"CC(C)c1nn(CC(=O)NC[C@@H](C)O)c(=O)c2cc3sc(F)cc3n12 [Ex 85, (R)-2-(2-Fluoro-5-isopropyl-8-oxothieno[2′,3′:4,5]pyrrolo[1,2-d][1,2,4]triazin-7(8H)-yl)-N-(2-hydroxypropyl)acetamide]",130
5,"CC(C)c1nn(CC(=O)Nc2cncs2)c(=O)c2cc3sc(Cl)cc3n12 [Ex 12, 2-(2-Chloro-5-isopropyl-8-oxothieno[2′,3′:4,5]pyrrolo[1,2-d][1,2,4]triazin-7(8H)-yl)-N-(thiazol-5-yl)acetamide]",23.7
6,"CC(C)c1nn(CC(=O)Nc2nccs2)c(=O)c2cc3sc(Cl)cc3n12 [Ex 11, 2-(2-Chloro-5-isopropyl-8-oxothieno[2′,3′:4,5]pyrrolo[1,2-d][1,2,4]triazin-7(8H)-yl)-N-(thiazol-2-yl)acetamide]",62.5
7,"CC(C)c1nn(CC(=O)N[C@]2(C)C[C@@H](O)C2)c(=O)c2cc3sc(Cl)cc3n12 [Ex 23, 2-(2-Chloro-5-isopropyl-8-oxothieno[2′,3′:4,5]pyrrolo[1,2-d][1,2,4]triazin-7(8H)-yl)-N-((1r,3r)-3-hydroxy-1-methylcyclobutyl)acetamide]",452
8,"CC(C)c1nn(CC(=O)NCCC(C)(C)O)c(=O)c2cc3scnc3n12 [Ex 94, N-(3-Hydroxy-3-methylbutyl)-2-(5-isopropyl-8-oxothiazolo[5′,4′:4,5]pyrrolo[1,2-d][1,2,4]triazin-7(8H)-yl)acetamide]",64.9
9,"CC(C)c1nn(CC(=O)NCCC2(O)CC2)c(=O)c2cc3sc(Cl)cc3n12 [Ex 110, 2-(2-Chloro-5-isopropyl-8-oxothieno[2′,3′:4,5]pyrrolo[1,2-d][1,2,4]triazin-7(8H)-yl)-N-(2-(1-hydroxycyclopropyl)ethyl)acetamide]",115
10,"CC(C)(O)c1nn(CC(=O)Nc2ccc3cn[nH]c3c2)c(=O)c2cc3sc(Cl)cc3n12 [Ex 65, 2-(2-Chloro-5-(2-hydroxypropan-2-yl)-8-oxothieno[2′,3′:4,5]pyrrolo[1,2-d][1,2,4]triazin-7(8H)-yl)-N-(1H-indazol-6-yl)acetamide]",6.2
11,"CC(C)c1nn(CC(=O)NC2CC3(CC(O)C3)C2)c(=O)c2cc3sc(Cl)cc3n12 (stereo not drawn) [Ex 73, 2-(2-Chloro-5-isopropyl-8-oxothieno[2′,3′:4,5]pyrrolo[1,2-d][1,2,4]triazin-7(8H)-yl)-N-(6-hydroxyspiro[3.3]heptan-2-yl)acetamide]",14.5
12,"CC(C)c1nn(CC(=O)N[C@H]2CC[C@H](C(=O)O)CC2)c(=O)c2cc3sc(F)cc3n12 [Ex 120, (1r,4r)-4-(2-(2-Fluoro-5-isopropyl-8-oxothieno[2′,3′:4,5]pyrrolo[1,2-d][1,2,4]triazin-7(8H)-yl)acetamido)cyclohexane-1-carboxylic acid]",17.2
13,"CC(C)c1nn(CC(=O)N[C@H]2C[C@@H](O)C2)c(=O)c2cc3sc(Cl)cc3n12 [Ex 109, 2-(2-Chloro-5-isopropyl-8-oxothieno[2′,3′:4,5]pyrrolo[1,2-d][1,2,4]triazin-7(8H)-yl)-N-((1s,3s)-3-hydroxycyclobutyl)acetamide]",221
14,"CC(C)c1nn(CC(=O)N[C@H]2CCNC2)c(=O)c2cc3sc(Cl)cc3n12 [Ex 102, (S)-2-(2-Chloro-5-isopropyl-8-oxothieno[2′,3′:4,5]pyrrolo[1,2-d][1,2,4]triazin-7(8H)-yl)-N-(pyrrolidin-3-yl)acetamide]",886
15,"CC(C)(O)c1nn(CC(=O)N[C@H]2CCNC2)c(=O)c2cc3sc(Cl)cc3n12 [Ex 107, (S)-2-(2-Chloro-5-(2-hydroxypropan-2-yl)-8-oxothieno[2′,3′:4,5]pyrrolo[1,2-d][1,2,4]triazin-7(8H)-yl)-N-(pyrrolidin-3-yl)acetamide]",4400
16,"CC(C)c1nn(CC(=O)N[C@@H]2CCC(=O)N(C)C2)c(=O)c2cc3scnc3n12 [Ex 97, (R)-2-(5-Isopropyl-8-oxothiazolo[5′,4′:4,5]pyrrolo[1,2-d][1,2,4]triazin-7(8H)-yl)-N-(1-methyl-6-oxopiperidin-3-yl)acetamide]",18.3
17,"CC(C)(O)c1nn(CC(=O)Nc2ccc3cc[nH]c3c2)c(=O)c2cc3sc(Cl)cc3n12 [Ex 67, 2-(2-Chloro-5-(2-hydroxypropan-2-yl)-8-oxothieno[2′,3′:4,5]pyrrolo[1,2-d][1,2,4]triazin-7(8H)-yl)-N-(1H-indol-6-yl)acetamide]",212
18,"CC(C)c1nn(CC(=O)NC[C@@H](C)O)c(=O)c2cc3scnc3n12 [Ex 95, (R)-N-(2-Hydroxypropyl)-2-(5-isopropyl-8-oxothiazolo[5′,4′:4,5]pyrrolo[1,2-d][1,2,4]triazin-7(8H)-yl)acetamide]",246
19,"CC(C)c1nn(CC(=O)N[C@H]2C[C@@](C)(O)C2)c(=O)c2cc3sc(F)cc3n12 [Ex 87, 2-(2-Fluoro-5-isopropyl-8-oxothieno[2′,3′:4,5]pyrrolo[1,2-d][1,2,4]triazin-7(8H)-yl)-N-((1s,3s)-3-hydroxy-3-methylcyclobutyl)acetamide]",1
20,"CC(C)c1nn(CC(=O)Nc2cccnc2Cl)c(=O)c2cc3sc(Cl)cc3n12 [Ex 13, 2-(2-Chloro-5-isopropyl-8-oxothieno[2′,3′:4,5]pyrrolo[1,2-d][1,2,4]triazin-7(8H)-yl)-N-(2-chloropyridin-3-yl)acetamide]",94
21,"CC(C)(O)c1nn(CC(=O)N[C@H]2CC[C@H](C(=O)O)CC2)c(=O)c2cc3sc(Cl)cc3n12 [Ex 122, (1r,4r)-4-(2-(2-Chloro-5-(2-hydroxypropan-2-yl)-8-oxothieno[2′,3′:4,5]pyrrolo[1,2-d][1,2,4]triazin-7(8H)-yl)acetamido)cyclohexane-1-carboxylic acid]",267
